{"source": "patent US20170333516A1", "about": "“PREVENTIVE OR THERAPEUTIC AGENT FOR AGE-RELATED MACULAR DEGENERATION” (JUNTENDO EDUCATIONAL FOUNDATION, priority 2014, published 2017)", "system": "angiogenesis from the choroid plexus", "test": "Laser-induced angiogenesis from the choroid plexus (AMD model), administration into the vitreous body", "type": "in vivo, mouse", "details": "for suppressive effect on AMD onset (FIG. 2): figure legend FIG. 2, old mice, administration into vitreous body after laser irradiation", "text": "Laser light (power: 200 mW, exposure time: 0.10 seconds, wavelength: 532 nm) was irradiated in 4 to 5 spots onto male young (8 to 12 weeks) and old (44 to 48 weeks) BLT1^+/+ mice and BLT1^−/− mice, and after 7 days, the eyes were isolated and fixed using a phosphate buffered saline (PBS) containing 4% paraformaldehyde (PFA), the cornea, lens, and retina were removed, and then fixed again using 4% PFA/PBS. The ocular tissue containing the retinal pigment epithelia and choroid plexus were immersed in PBS containing methanol in order of 50%, 75%, 100%, 75%, 50%, and 25% to remove water, and then incubated at 4° C. for 1 hour in a blocking solution (1% bovine blood serum albumin, phosphate buffered saline containing 0.1% Triton X-100), and then stained overnight at 4° C. using isolectin B4 (IB4, […]) labeled with FITC. Incisions were made in the samples and the samples were molded on a slide glass, sealed with a mounting agent containing an antifading reagent, and then a cover glass was placed thereon to produce a flat mount. A three-dimensional IB4 positive blood vessels image was captured using a confocal microscope, and the volume of angiogenesis that occurred in each mouse was measured.\nImmediately after laser light irradiation of C57BL/6 background old mice purchased (Japan SLC, wild mice, 40 weeks or older, male), DMSO (final: 0.1%, diluted with PBS), CP105696 (where in the formula (1), R^1=phenyl and R^2=1-carboxycyclopentyl group) which is a BLT1 antagonist, or zileuton, bestatin, or MK886 each of which is an inhibitor for LTB4 production-related enzyme was administered into a vitreous body of each mouse. Similar to Test Example 1, angiogenesis from the choroid plexus was evaluated 7 days after laser irradiation."}
{"smiles": "O=C(O)C1(c2ccc3c(c2)OC[C@H](Cc2ccc(-c4ccccc4)cc2)[C@H]3O)CCCC1", "note": "[CP 105696, 1-[(3S,4R)-4-hydroxy-3-[(4-phenylphenyl)methyl]chroman-7-yl]cyclopentane-1-carboxylic acid]", "values": [{"measurement": "angiogenesis volume", "setting": "C57BL/6 background old mice (40 weeks or older, male), administered into vitreous body immediately after laser irradiation, evaluated 7 days after laser irradiation", "value": "significantly reduced in a concentration-dependent manner"}, {"measurement": "suppressive effect on AMD onset (FIG. 2)", "value": "suppressive effect"}]}
{"smiles": "CC(C)c1ccc2c(c1)c(SC(C)(C)C)c(CC(C)(C)C(=O)O)n2Cc1ccc(Cl)cc1", "note": "[MK886]", "values": [{"measurement": "suppressive effect on AMD onset (FIG. 2)", "value": "suppressive effect"}]}
{"smiles": "CC(C)C[C@H](NC(=O)[C@@H](O)[C@H](N)Cc1ccccc1)C(=O)O", "note": "[bestatin, N-[(2S,3R)-3-amino-2-hydroxy-4-phenylbutyryl]-L-leucine]", "values": [{"measurement": "suppressive effect on AMD onset (FIG. 2)", "value": "suppressive effect"}]}
{"smiles": "CC(c1cc2ccccc2s1)N(O)C(N)=O", "note": "(centres unmarked) [zileuton, N-[1-(1-benzothien-2-yl)ethyl]-N-hydroxyurea]", "values": [{"measurement": "suppressive effect on AMD onset (FIG. 2)", "value": "suppressive effect"}]}
